# Read-outs that look alike come from different tables or passages of the source.
# How the values were obtained:
# WT STING [1] = biological target: T1, WT STING (Homo sapiens, UniProt Q86WV6, H232R); assay: 293T WT STING standard reporter assay; format: cell-based; set-up: host or cells: 293T (ATCC CRL-3216), stably transfected, with 4xISRE firefly luciferase reporter; conditions: 293T wtSTING-FL cells, ISRE firefly luciferase; no digitonin; 7 hours with compounds; 8-point curve
# Description: Two complementary oligonucleotides of the sequence […] […] […] […] […] The oligonucleotides were mixed in equal molar amounts, hybridized, and cleaved by restriction endonucleases HindIII (cat. #. R0104S, NEB, Ipswich, USA) and BglII (cat. #R0144S, NEB, Ipswich, USA). Ultimately, they were ligated into plasmid pGL4.27 (cat. #E6651, Promega, Madison, USA) linearized with the same enzymes. As result the sequence with four ISRE sites was placed upstream of the minimum promoter of firefly luciferase reporter gene.
# After 5 minutes incubation at room temperature (RT), 250 μL of the mixture was added dropwise to the cells in one well. Cells were incubated 36 hours at 37° C. with 5% CO2, and then detached with 0.05% Trypsin and 0.22 g/L EDTA (both cat. #L0941, Biowest, Riverside, USA).
# Transfected cells were seeded onto poly-D-lysine coated six well plates at density 50,000 cells per 1 cm^2 in DMEM medium with high glucose containing 10% heat inactivated FBS, 30 μg/mL blasticidin (cat. #ant-b1-05, InvivoGen, San Diego, USA), 0.06 mg/ml Penicillin G and 0.1 mg/ml Streptomycin Sulfate (both cat. #. L0018, Biowest, Riverside, USA). The medium was replenished every 3-4 days until visible colonies of cells resistant to blasticidin were formed.
# Blasticidin resistant cells stably expressing WT STING were further transfected with […] plasmid following the same procedure as described above. […] Homogeneous culture of stably double transfected cells was prepared by limiting dilution of cells in 96 well plates and wells with cells were selected that originated from a single cell.
# The medium was removed next day and three-fold serial dilutions of compounds in 100 μl medium were added to the cells. The plates with cells were incubated for 7 hours at 37° C. with 5% CO2. After 50 μl of the medium was removed, 30 μl of ONE-Glo™ Luciferase Assay System reagent (cat. #E6120, Promega, Madison, USA) was added to each well and luminescence was read on Synergy H1 (Biotek, Winooski, USA).
# Target sequence in this assay (Q86WV6 whole entry H232R): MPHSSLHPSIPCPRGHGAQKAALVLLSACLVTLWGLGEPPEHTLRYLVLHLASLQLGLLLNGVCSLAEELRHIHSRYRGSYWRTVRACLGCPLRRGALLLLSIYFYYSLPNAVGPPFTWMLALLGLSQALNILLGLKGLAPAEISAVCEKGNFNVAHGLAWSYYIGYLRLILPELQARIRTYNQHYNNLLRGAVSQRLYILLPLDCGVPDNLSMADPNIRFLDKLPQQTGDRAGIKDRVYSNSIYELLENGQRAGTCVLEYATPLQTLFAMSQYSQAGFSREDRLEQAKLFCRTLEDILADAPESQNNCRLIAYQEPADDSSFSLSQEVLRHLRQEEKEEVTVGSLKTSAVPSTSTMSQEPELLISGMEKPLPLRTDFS
# WT STING [2] = biological target: T1, WT STING; assay: Digitonin assay using 293T wtSTING-FL reporter cells; format: cell-based; set-up: host or cells: 293T (ATCC CRL-3216), stably transfected, with 4xISRE firefly luciferase reporter; conditions: 293T wtSTING-FL cells, ISRE firefly luciferase; compounds in Digitonin buffer 30 minutes, then 5 hours; 8-point curve
# Target sequence in this assay (Q86WV6 whole entry H232R): as above
# AQ STING (G230A-R293Q) = biological target: T2, AQ STING (G230A-R293Q) (Homo sapiens, UniProt Q86WV6, G230A/H232R/R293Q); assay: Differential scanning fluorimetry (DSF) with AQ STING; format: binding; conditions: thermal shift vs apoprotein; 150 μM CDN; truncated human AQ STING 0.1 mg/ml
# T2 construct: 8xHis (N, cleaved yes); SUMO (N, cleaved yes); made in house; host or cells: E. coli Rosetta-gami B (DE3)
# Procedure, shortened: (§1)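 […] STING proteins, alone or with CDNs, in triplicate, thermally denatured on a real-time PCR cycler. Denaturing temperatures taken from first-derivative curves; shift = mean Tm of STING–CDN complex minus mean Tm of apoprotein.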
# [3] = tested on: peripheral blood mononuclear cells (PBMC); assay: Peripheral blood mononuclear cell (PBMC) assay; format: cell-based; conditions: PBMC, 1 h with compounds, washed, 15 hour incubation, average of one to four donors
# Procedure, shortened: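 PBMCs exposed to serially diluted compound for 1 h at 37° C, 5% CO2, then washed twice and cultured 15 h in compound-free medium. IFN-α, IFN-γ and TNF-α measured in collected medium by multiplex bead immunoassay. Values averaged over runs from one to four donors.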
# WT STING [4] = biological target: T1, WT STING; assay: Differential scanning fluorimetry (DSF) with WT STING; format: binding; set-up: 8xHis (N, cleaved yes); SUMO (N, cleaved yes); made in house; host or cells: E. coli Rosetta-gami B (DE3); conditions: thermal shift vs apoprotein; 150 μM CDN; truncated human WT STING 0.1 mg/ml
# Procedure, shortened: as §1
# Target sequence in this assay (Q86WV6 140-343 H232R): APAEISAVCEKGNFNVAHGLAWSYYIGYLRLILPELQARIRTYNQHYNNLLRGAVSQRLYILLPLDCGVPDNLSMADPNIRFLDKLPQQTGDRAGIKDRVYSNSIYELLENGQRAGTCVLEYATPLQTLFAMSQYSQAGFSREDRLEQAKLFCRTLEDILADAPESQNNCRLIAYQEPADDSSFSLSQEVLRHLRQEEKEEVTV
# T2 sequence (Q86WV6 140-343 G230A/H232R/R293Q): as the sequence (Q86WV6 140-343 H232R) above, with G91A, R154Q counted along it
compound,measurement,setting,value
"Nc1ncnc2c1ncn2[C@@H]1C[C@@H]2COP(=O)(O)OC3C[C@H](n4cnc5c(N)ncnc54)O[C@@H]3COP(=O)(O)OC2C1F (stereo partly drawn) [Compound 124, (2R,3aS,7aR,9R,10S,10aR,14aR)-2,9-bis(6-amino-9H-purin-9-yl)-10-fluoro-5,12-dihydroxydecahydro-2H-cyclopenta[d]furo[3,2-j][1,3,7,9]tetraoxa[2,8]diphosphacyclododecine 5,12-dioxide]",EC50,WT STING [1],4.9 µM
same,EC50,WT STING [2],0.05 µM
same,ΔTm at 150 µM,AQ STING (G230A-R293Q),12.8 °C
same,EC50,"[3]; interferon-alpha level, read-out: PBMC EC50 (μM) IFN-α",290 µM
same,EC50,"[3]; interferon-gamma level, read-out: PBMC EC50 (μM) IFN-γ",43 µM
same,EC50,"[3]; tumor necrosis factor-alpha level, read-out: PBMC EC50 (μM) TNF-α",223 µM
same,ΔTm at 150 µM,WT STING [4],6.2 °C
